Patent US11103478B2, “Anavex2-73 for the treatment of alzheimer's disease” (ANAVEX LIFE SCIENCES CORP., priority 2017, dated 2021)

What was measured:
[1] = tested on: amyloid β25-35 peptide (Aβ25-35) toxicity; conditions: cited from earlier work
[2] = tested on: muscarinic acetylcholine receptors; conditions: believed to bind; cited from earlier work
[3] = Randomized, placebo-controlled single ascending dose Phase 1 study in healthy male volunteers; format: in vivo, human
Experimental: See Poster: A Phase 1 Dose Escalation Study to Investigate Safety, Tolerability, and Pharmacokinetics of ANAVEX2-73 in Healthy Male Subjects, CNS Summit 2014, Boca Raton, Fla., by Ole Voges, Ingo Weigmann, Norman Bitterlich, Christoph Schindler and Christopher Missling. […] Based on the frequency and intensity of […] adverse events (TEAEs) the maximum tolerable dose (MTD) and the minimum intolerable dose (MID) were defined as 55 mg and 60 mg, respectively.

[4] = tested on: mild-to-moderate Alzheimer's disease patients; assay: Phase 2a trial: auditory P300 event related potential (three-stimulus oddball paradigm); format: in vivo, human
Experimental: (§1) The 36-day multicenter randomized clinical trial included both male and female mild-to-moderate Alzheimer's disease patients. ANAVEX2-73 was administered to twelve subjects as an add-on therapy to the donepezil current standard of care. ANAVEX2-73 was administered according to a two-period on-off-on cross-over dosing regimen in which the subjects were administered ANAVEX2-73 for 12 days (1st period) followed by a 12-day wash-out period before being administered ANAVEX2-73 for a second 12-day period (2nd period). Those subjects that were administered ANAVEX2-73 by oral administration during the 1st period were administered ANAVEX2-73 intravenously during the 2nd period, and vice versa. About half of the subjects were administered a 30 mg oral dosage form while the other half of subjects were administered a 50 mg oral dosage form. The intravenous dosage was either 3 mg or 5 mg, with about half of the subjects administered 3 mg and the other half administered 5 mg.
Resting electroencephalographic (EEG) activity and event related potentials (EEG/ERP) were used to assess the cognitive effects of ANAVEX2-73 administration. Event related potentials (ERPs) are voltage changes time-locked to some physical or mental occurrence in ongoing electrical brain activity, as recorded by EEG. Event-related potentials (ERPs) provide a sensitive and reliable measure of the cognitive effects associated with early Alzheimer's disease. […] See for example, New Encycl. Neurosci., Oxford Academic Press, p. 13-18 (2009). For example, ERP tests on young presymptomatic individuals who carry mutations in the presenilin-1 and amyloid precursor protein genes show significant changes in ERP patterns years before the onset of behavioral symptoms and the development of Alzheimer's disease. See for example, Neurology 73, 1649-1655 (2009); Neurology 77, 469-475 (2011). […] For instance, ERP markers of cognitive function are increasingly altered in longitudinal studies on individuals with mild cognitive impairment (MCI) and Alzheimer's disease patients. See for example, Clin. Neurophysiol. 122, 1322-1326 (2011); Clin. Neurophysiol. 121, 194-199 (2010). […] See for example, Neurol. Neurochir. Pol. 35 Suppl 3, 37-43 (2001); Clin. Neuropharmacol. 25, 207-215 (2002); Neurosci. Biomed. Eng. 1, 34-39 (2013).
In particular, the auditory P300 component of the ERP has been widely applied in the study of age-related cognitive dysfunction because it is thought to reflect attentional and memory processes. Auditory P300 is a positive deflection occurring at about 300 ms from stimulus onset. It is generated by the activation of multiple neocortical and limbic regions. […]

sigma-1 receptor = sigma-1 receptor (Homo sapiens, UniProt Q99720); conditions: believed to bind; cited from earlier work
sigma-1 receptor, sequence (Q99720 whole entry, species assumed): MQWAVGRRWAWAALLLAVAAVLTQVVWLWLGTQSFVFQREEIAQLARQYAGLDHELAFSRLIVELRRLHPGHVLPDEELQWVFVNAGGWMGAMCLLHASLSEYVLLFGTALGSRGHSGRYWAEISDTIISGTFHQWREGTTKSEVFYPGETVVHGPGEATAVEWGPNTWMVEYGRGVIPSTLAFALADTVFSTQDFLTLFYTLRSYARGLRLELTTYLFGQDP

[5] = tested on: mild-to-moderate Alzheimer's disease patients; assay: Phase 2a trial: EEG peak alpha frequency (PAF); format: in vivo, human; conditions: 12 patients, day 36
Experimental: as §1, with “About half of the subjects were administered a 30 mg oral dosage form while the other half of subjects were administered a 50 mg oral dosage form. The intravenous dosage was either 3 mg or 5 mg, with about half of the subjects administered 3 mg and the other half administered 5 mg.” left out
Subjects were tested using a three-stimulus oddball paradigm. […] Electroencephalographic (EEG) activity was recorded from seven electrode sites (Fz, Cz, Pz, F3, P3, F4, and P4) of the international 10-20 system using a COGNISION™ Headset (Neuronetrix). […]
FIG. 8 illustrates electroencephalographic (EEG) peak alpha frequency (PAF) data for twelve patients at baseline and day 36 following the on-off-on ANAVEX2-73 dosing regimen, as compared to a healthy control group. Electroencephalographic (EEG) peak alpha frequency (PAF), measured in Hz, is a distinctive individual “fingerprint” that has been correlated to cognitive performance and reflects a trait or state of cognitive preparedness. […]

[6] = tested on: mild-to-moderate Alzheimer's disease patients; assay: Phase 2a trial: MMSE and Cogstate scales, safety profile; format: in vivo, human
Experimental: as §1
The results for the twelve subject on-off-on dosing regimen of ANAVEX2-73, shown in FIGS. 5-9, were achieved without any dose optimization. […] An additional 20 subjects will be studied during the remainder of the Phase 2a clinical trial. Phase 2b clinical trials, involving an additional 26-week extension of daily oral dosage administration of ANAVEX2-73 is on-going.

[7] = tested on: patients with early signs of Alzheimer's disease; assay: Single-patient examples of intermittent dosing in early Alzheimer's disease (Examples 1-5); format: in vivo, human
From the text: The following examples show uses of ANAVEX2-73 in the treatment of patients with Alzheimer's disease or presenting with the early signs of Alzheimer's disease. The clinical determination that a patient may have Alzheimer's disease or is presenting with early signs of Alzheimer's disease is well known in the art. By way of example, the following references (and all publications cited herein) are incorporated by reference herein in their entireties: Dementia: From Diagnosis to Management—A Functional Approach 1st Edition, Psychology Press (Feb. 17, 2009); Clinician's Guide to Psychological Assessment and Testing: With Forms and Templates for Effective Practice 1st Edition, Springer Publishing Company (Sep. 18, 2012); Neurodegener. Dis. Manag. 5(3), 191-201 (2015); Artif. Intell. Med. 64(1), 59-74 (2015); Clin. Chem. 60(12), 1585-1586 (2014); and Metabolism 64(3 Suppl 1), S47-50 (2014).
A person presents with early signs of Alzheimer's disease. They are orally administered a pharmaceutical composition containing 30 mg ANAVEX2-73 according to an intermittent dosing regimen where each cycle includes daily administration for 10 days (dosing period) followed by 10 days of no administration (resting period). The patient is administered 30 mg ANAVEX2-73 according to the intermittent dosing regimen for 6 months. Their loss of cognitive function stabilizes during that period.
A person presents with signs of early onset Alzheimer's disease. They are orally administered a pharmaceutical composition containing 50 mg ANAVEX2-73 according to an intermittent dosing regimen where each cycle includes daily administration for 10 days (dosing period) followed by 20 days of no administration (resting period). Their loss of cognitive function stabilizes during that period.
A person presents with signs of early onset Alzheimer's disease. They are administered 3 mg of ANAVEX2-73 intravenously according to an intermittent dosing regimen where each cycle includes daily administration for 5 days (dosing period) followed by 20 days of no administration (resting period) for one year. Their loss of cognitive function stabilizes during that period.
A person presents with signs of early onset Alzheimer's disease. They are administered 5 mg of ANAVEX2-73 intravenously according to an intermittent dosing regimen where each cycle includes daily administration for 14 days (dosing period) followed by 7 days of no administration (resting period) for one year. Their loss of cognitive function stabilizes during that period.
A person presents with early signs of Alzheimer's disease. They are orally administered a pharmaceutical composition containing 50 mg ANAVEX2-73 according to an intermittent dosing regimen where each cycle includes daily administration for 14 days (dosing period) followed by 7 days of no administration (resting period). The patient is administered 50 mg ANAVEX2-73 according to the intermittent dosing regimen for 6 months. Their loss of cognitive function is stabilized during that period.

SMILES: CN(C)CC1CCOC1(c1ccccc1)c1ccccc1.Cl (stereo not shown) [ANAVEX2-73, tetrahydro-N,N-dimethyl-2,2-diphenyl-3-furanmethanamine hydrochloride]
- hyperphosphorylation of Tau on physiological (AT-8) and pathological (AT-100) epitopes ([1]; in the dose-range tested): attenuated
- oxidative stress, caspases induction, cellular loss and learning and memory deficits ([1]; mice one week after i.c.v. injection of oligomeric Aβ25-35): attenuating
- Aβ25-35-induced P-Akt decrease and P-GSK-3β increase ([1]; mice, Aβ25-35): blocked
- Aβ25-35-induced endogenous Aβ1-42 seeding ([1]; mouse, in vivo): decrease
- affinity for muscarinic acetylcholine receptors [2]: low micromolar range
- observed adverse events ([3]; human, in vivo): moderate and reversible dizziness and headache
- QT interval and QTcB ([3]; human, in vivo, po): did not reveal any clinically significant changes
- blood pressure, resting heart rate, vital signs and 12-lead ECG ([3]; human, in vivo, po): did not show any clinically relevant or dose-dependent changes
- pharmacokinetics ([3]; human, in vivo, po): suitable for daily oral dosing
- serious adverse events ([3]; human, in vivo, po): No serious adverse events occurred
- minimum intolerable dose (MID) ([3]; male, human, in vivo, po): 60 mg
- maximum tolerable dose (MTD) ([3]; single oral dose, healthy male volunteers): 55 mg
- P300 ERP wave: measured cognitive performance vs baseline ([4]; 12 patients, day 36, on-off-on regimen (30/50 mg oral, 3/5 mg i.v.), add-on to donepezil): improved measured cognitive performance
- P300 amplitude, Percentage Increase Over Baseline Data ([4]; 12 patients, day 36 vs baseline, hydrochloride): 38%
- P300 amplitude change vs historical donepezil at the 1 month time point ([4]; day 36 (1 month), change from baseline, donepezil data from the literature): about four times higher
- percent P300 amplitude change after 1 month vs historical donepezil after 6 months ([4]; day 36 (1 month), donepezil data from the literature): greater
- affinity for sigma-1 receptor (sigma-1 receptor): low micromolar range
- EEG peak alpha frequency (PAF) vs baseline [5]: higher
- safety profile during Phase 2a ([6]; Phase 2a trial): consistent with the Phase 1 data
- Mini Mental State Examination (MMSE) and Cogstate scale changes ([6]; preliminary, 12 patients): consistent with the observed trend of the cognitive EEG/ERP effect
- loss of cognitive function ([7]; Example 1: person, 30 mg oral, 10 days on / 10 days off, 6 months): stabilizes
- loss of cognitive function ([7]; Example 2: person, 50 mg oral, 10 days on / 20 days off): stabilizes
- loss of cognitive function ([7]; Example 3: person, 3 mg intravenously, 5 days on / 20 days off, one year): stabilizes
- loss of cognitive function ([7]; Example 4: person, 5 mg intravenously, 14 days on / 7 days off, one year): stabilizes
- loss of cognitive function ([7]; Example 5: person, 50 mg oral, 14 days on / 7 days off, 6 months): is stabilized
